# From patent publication US20260306633A1, “A COMBINATION THERAPY FOR CANCER TREATMENT” (Purdue Research Foundation, priority 2023, published 2026)
# “And” between values parts separate entries of the source, which are not always exact repeats. Identical values can stand only once.
# How the values were obtained:
# TNBC BT-549 cells = assay: Cell survival / cell inhibition (MTT cell cytotoxicity assay) after 24 h treatment with photosensitizer and/or chemotherapeutic agent, dark or light-irradiated; type: cell-based, human
# Method: Human mammary epithelial carcinoma cell lines purchased from the American Type Culture Collection BT-549 (ATCC HTB-122) were cultured according to ATCC protocol. BT-549 cells were grown in RPMI 1640 containing 0.023 IU/mL insulin and supplemented with 10% fetal bovine serum (FBS). Cells were grown to 80-90% confluence in 75-cm^2 culture flasks (Corning) for 4-5 days in a humidified incubator (Fisher Scientific Isotemp) with 5% CO2 at 37° C. During the incubation period, growth media was changed once with fresh pre-warmed media (pH 7.2). To harvest the cells, old growth media was aspirated out, and 3 mL 0.25% trypsin solution (Thermo Sci Hyclone) were added. The cells were incubated for 5 minutes, and the cell pellet after centrifugation was resuspended in 3 mL media, broken up gently, then 1 mL of suspended cells was transferred into a new T75 cell culture flask containing pre-warmed media (20 mL) for further culturing.
# (§1) Cells were grown to confluence in a 96-well plate (9×10^3 cells/well) and co-treated for 24 hours with synthesized photosensitizers (PSs) and chemotherapeutic agents of varying concentrations ranging from 5 nM to 50 μM) in growth media from a stock solution of 10 mM in DMSO (dimethyl sulfoxide, Fisher). After 24-hour treatment, old growth media containing the PSs or compounds were aspirated out and replaced with fresh media. Plates were then positioned below a non-coherent LumaCare LC-122 650 nm light source for 1 minute at an energy fluence rate of 0.96 J/cm^2 and a power of 16 mW/cm^2 (measured using a Newport optical power meter Model 840). Unirradiated cells served as control samples. The following day, cells were washed with pre-warmed PBS, and 11MTT (3-[4,5-dimethyl-thiazol-2-yl]-2.5-diphenyltetrazolium bromide, Sigma, 0.3 mg/mL) in PBS was added to each well. Samples were allowed to incubate for additional 2 hours, after which dark blue crystals formed. DMSO was added to each well and plates were shaken at room temperature for 1 hour to dissolve the purplish-blue formazan crystals. Absorbance values at 570 nm were measured on a microplate reader (BioRad 550). Cell survival was calculated based on the absorbance of the untreated cells alone (as control) and were directly proportional to the number of viable cells in culture. Results were reported as the mean±SD of triplicate measurements.
# The unmetallated PS and the indium complexes were used.
# Light dose corresponds to an energy fluence rate of 0.96 J/cm^2 used.
# Power of 16 mW/cm^2 used.
# Cell inhibition in TNBC cells is based on the cell survival (MTT) assay of the binary therapy, blending the effect of PDT and chemotherapeutic agents. […] MePheo serves as a control compound. TNBC cells were then exposed to light after binary treatment for 24 hours.
# TNBC cells [1] = assay: Combination index (CI) of binary therapy, Chou-Talalay method, CompuSyn software; type: cell-based, human
# Method: (§2) The calculated CI values are based on 50 nM concentration for the PSs, 50 nM paclitaxel, 500 nM doxorubicin, 25 μM cisplatin, 25 μM fluorouracil, and 500 nM methotrexate.
# as §1
# The combination index (CI) for the binary treatment of TNBC cells with a PS and a chemotherapeutic drug was calculated based on the Chou-Talalay method using CompuSyn software. […] The unified dynamics algorithm uses a minimum of dose-data points to fit the general MAL theory.
# as §2
# human TNBC BT-549 cells = assay: Fluorescence microscopy (Hoechst 33258) of cell morphology / cell death pathway; type: cell-based
# Method: Grayscale images of cells stained with Hoechst 33258. Morphology of (A) untreated unirradiated cells, sham control; (B) illuminated cells; (C-E) cells treated with: PSs (InCLA, CBTN, and CPA) and paclitaxel in the dark; (F-H) PSs, followed by 1 minute light exposure; (I) paclitaxel unirradiated; (J-L) PSs and paclitaxel in the dark; (M-O) PSs co-treated with paclitaxel, then light-exposed; (P-Q) PSs co-treated with doxorubicin, then irradiated; (R) PSs and cisplatin, dark; (S-T) PSs and cisplatin, irradiated; (U) fluorouracil, dark; (V) InCLA with fluorouracil in the dark; (W) light-exposed and, (X-Y) PSs with methotrexate with light. Inserts indicate enlarged view. […] Light dose in 1 minute=0.96 J cm^−2; in 30 seconds=0.48 J cm^−2. Concentrations: PSs=50 nM; paclitaxel=50 nM; doxorubicin=500 nM; cisplatin=25 μM; fluororuracil=25 μM; and, methotrexate=500 nM.
# Cells (1 mL aliquots) obtained from a diluted cell suspension were seeded into each well (1.7 cm^2, 8×10^3 cells/well) of a 4-well culture slide (BD Biosciences) and grown to confluence in 5% CO2 at 37° C. for 3-4 days for attachment to the substratum. After aspirating the old growth media, 1 mL of the photosensitizer and chemotherapeutic agents (with appropriate concentrations) in fresh pre-warmed media at 37° C. was added to each well. After compound treatment for 24 hours, cells were washed twice with 1 mL fresh growth media, and then irradiated with light using LumaCare LC-122 as described above. Cells were stained in the dark with Hoechst 33258 (Molecular Probes) in pre-warmed media for 10 minutes at 37° C., washed twice with filtered PBS, then fixed with filtered paraformaldehyde for 15 minutes in the incubator. After thorough liquid aspiration, the wells were removed and allowed to air dry in the dark for 1 hour. Slides were protected with coverslips, whose edges were sealed using clear fast-drying nail polish and allowed to dry at room temperature in the dark for 30 minutes. Images were recorded using fluorescence microscopy (DAPI for Hoechst 350-390 nm excitation and 460-490 nm emission filters) using an upright fluorescence microscope with Retiga imaging 2000R (Nikon Optiphot-2, 20× and 40×) and an image processing Nikon NIS-Elements V4.0 Qimaging software.
# To determine the preferred cell death pathway for the binary chemophotodynamic therapy, tracking the hallmarks of apoptosis or necrosis was accomplished using a nuclear stain to monitor chromatin condensation and cellular contraction. TNBC cells are spindle-shaped and nearly round with intact cytoplasm, diffused chromatin, distinct cellular membrane, and large oval nuclei staining dark blue with the nuclear stain (FIG. 18A-B).
# TNBC cells [2] = assay: Combination index (CI) of binary therapy, Chou-Talalay method, CompuSyn software; type: cell-based, human; conditions: PS 50 nM + methotrexate 500 μM (footnote 500 nM)
smiles,measurement,setting,value
"C=Cc1c(C)c2cc3nc(c(CC(=O)OC)c4[nH]c(cc5nc(cc1[nH]2)C(C)=C5CC)c(C)c4C(=O)NCCCCCCNC(=O)CCNC(=O)[C@H](O)C(C)(C)CO)[C@@H](CCC(=O)OC)[C@@H]3C [CPA, chlorin pantothenic acid conjugate]","cell viability, co-treatment with methotrexate upon light","TNBC BT-549 cells; PS 50 nM + methotrexate 500 nM, light, 1440 min",66%
same,"cell survival, PS alone","TNBC BT-549 cells; PS 50 nM, light, 1440 min",99%
same,"cell inhibition (%), combination with cisplatin","TNBC BT-549 cells; PS 100 nM + cisplatin 25 μM, 24 h, light 0.96 J cm−2",87%
same,effect of added cisplatin compared to cisplatin-treated cell viability,"TNBC BT-549 cells; PS 100 nM + cisplatin 25 μM, light",reduced cell survival
same,"cell survival, co-treatment with cisplatin upon light","TNBC BT-549 cells; PS 100 nM + cisplatin 25 μM, light, 1440 min",13%
same,"cell survival, co-treatment with doxorubicin in the dark","TNBC BT-549 cells; PS 100 nM + doxorubicin 500 nM, 24 h, dark",75%
same,"cell inhibition (%), combination with doxorubicin","TNBC BT-549 cells; PS 100 nM + doxorubicin 500 nM, 24 h, light 0.96 J cm−2",73%
same,"cell survival, co-treatment with doxorubicin upon light","TNBC BT-549 cells; PS 100 nM + doxorubicin 500 nM, light, 1440 min, 0.1 µM",37% and 27%
same,best combination partner,"TNBC BT-549 cells; PS 100 nM + drug, light","cisplatin is the best, next doxorubicin, then paclitaxel"
same,"cell inhibition (%), combination with fluorouracil","TNBC BT-549 cells; PS 100 nM + fluorouracil 25 μM, 24 h, light 0.96 J cm−2",43%
same,effect of added fluorouracil compared to fluorouracil-treated cell viability,"TNBC BT-549 cells; PS 100 nM + fluorouracil 25 μM, light",reduced cell survival
same,"cell survival, co-treatment with fluorouracil upon light","TNBC BT-549 cells; PS 100 nM + fluorouracil 25 μM, light, 1440 min",57%
same,"cell inhibition (%), combination with methotrexate","TNBC BT-549 cells; PS 100 nM + methotrexate 500 nM, 24 h, light 0.96 J cm−2",33%
same,"cell inhibition (%), combination with paclitaxel","TNBC BT-549 cells; PS 100 nM + paclitaxel 50 nM, 24 h, light 0.96 J cm−2",63%
same,"cell survival, co-treatment with paclitaxel upon light","TNBC BT-549 cells; PS 100 nM + paclitaxel 50 nM, light, 1440 min",37%
same,"chemophotodynamic potency against TNBC cells, summary","TNBC BT-549 cells; PS 100 nM alone or in combination, light",better activity against TNBC cells than the starting compound MePheo
same,"cell survival, PS alone","TNBC BT-549 cells; PS 100 nM, light 0.96 J/cm^2, 1440 min, 0.1 µM",75.3% and 75%
same,"cytotoxicity in the absence of light, PS alone","TNBC BT-549 cells; PS 500 nM, dark",No cytotoxicity
same,combination therapy vs monotherapy (cisplatin),"TNBC BT-549 cells; PS + cisplatin, light",better photodynamic effect when co-treated with cisplatin than PS-treatment alone
same,combination therapy vs monotherapy (doxorubicin),"TNBC BT-549 cells; PS + doxorubicin, light",better photodynamic effect when co-treated with doxorubicin than PS-treatment alone
same,combination therapy vs monotherapy (fluorouracil),"TNBC BT-549 cells; PS + fluorouracil, light",better photodynamic effect when co-treated with fluorouracil than PS-treatment alone
same,combination therapy vs monotherapy (methotrexate),"TNBC BT-549 cells; PS + methotrexate, light",best compared to monotherapy alone and with the other PSs used
same,cell viability reduction (difference) vs PS alone,"TNBC BT-549 cells; PS at lower concentration (CPA: 50 nM) + methotrexate 500 nM, light",33%
same,combination index (CI) with cisplatin,TNBC cells [1]; PS 50 nM + cisplatin 25 μM,1.30
same,synergism vs additive vs antagonism effect with cisplatin,TNBC cells [1]; PS 50 nM + cisplatin 25 μM,"(MA) (MA (1.20-1.45), moderate antagonism)"
same,combination index (CI) with doxorubicin,TNBC cells [1]; PS 50 nM + doxorubicin 500 nM,1.52
same,synergism vs additive vs antagonism effect with doxorubicin,TNBC cells [1]; PS 50 nM + doxorubicin 500 nM,"(A) (A (1.45-3.3), antagonism)"
same,"ranking of combination partners based on CI, decreasing order",TNBC cells [1]; PS 50 nM + drug,paclitaxel>fluorouracil>methotrexate
same,combination index (CI) with fluorouracil,TNBC cells [1]; PS 50 nM + fluorouracil 25 μM,0.45
same,synergism vs additive vs antagonism effect with fluorouracil,TNBC cells [1]; PS 50 nM + fluorouracil 25 μM,"(S) (S (0.3-0.7), synergism)"
same,combination index (CI) with paclitaxel,TNBC cells [1]; PS 50 nM + paclitaxel 50 nM,0.41
same,synergism vs additive vs antagonism effect with paclitaxel,TNBC cells [1]; PS 50 nM + paclitaxel 50 nM,"(S) (S (0.3-0.7), synergism)"
same,"cell morphology, PS co-treated with paclitaxel","human TNBC BT-549 cells; PS 50 nM + paclitaxel 50 nM, light (FIG. 18M-O)",shrunk cells and chromatin fragmentation are evident
same,"cell morphology, PS-treated then light","human TNBC BT-549 cells; PS 50 nM, 24 h, light (FIG. 18F-H)",reduced cellular volume and nuclear density
same,preferred mode of cell death,human TNBC BT-549 cells; PS co-treated with paclitaxel or cisplatin,apoptosis
same,combination index (CI) with methotrexate,TNBC cells [2],0.50
same,synergism vs additive vs antagonism effect with methotrexate,TNBC cells [2],"(S) (S (0.3-0.7), synergism)"
